Patent publication US9005677B2, “Autophagy enhancer for treatment of neurodegenerative diseases” (Macau University of Science and Technology, priority 2013, dated 2015)
“Also recorded” adds a separate entry of the source.

Legend:
PC-12 cells [1] = experiment: MTT cytotoxicity assay; format: cell-based, rat; details: 0.039-100 μmol/L, 48 hours
Experimental: (§1) Cell culture and cytotoxicity assay: The test compound of Onjisaponin B was dissolved in DMSO at a final concentration of 100 mmol/L and stored at −20° C. Cytotoxicity was assessed using the 3-(4,5-dimethylthiazol-2-yl) -2,5-diphenyltetrazolium bromide assay as described previously. PC-12, 4000 cells were seeded on 96-well plates per well. After overnight pre-incubation, the cells were exposed to different concentrations of Onjisaponin B (0.039-100 μmol/L) for 2 days. Subsequently, 10 μL of MTT reagents was added to each well and incubated at 37° C. for 4 hours followed by the addition of 100 μL solubilization buffer (10% SDS in 0.01 mol/L HCl) and overnight incubation. Absorbance at 585 nm was determined from each well the next day. For cell viability assay measured by crystal violet staining, PC-12 cells were incubated in 35 mm disc followed by the addition of Onjisaponin B at the indicated concentrations for 24 hours. The cells were then incubated with crystal violet for 10 minutes followed by a ddH2O wash. […] Cell viability was quantified by dissolving the stained cells in 10% acetic acid (200 μL/well). The colorimetric reading of the solute mixture was then determined by spectrophotometer at OD 560 nm The percentage of cell viability was calculated using the following formula: Cell viability (%)=Cells number treated/Cells number DMSO control×100. […]

PC-12 cells [2] = experiment: Cell viability by crystal violet staining; format: cell-based, rat; details: 24 hours
Experimental: as §1

[3] = tested on: Atg7 wild-type mouse embryonic fibroblasts; experiment: GFP-LC3 puncta in Atg7 wild-type MEFs; format: cell-based
Experimental: Quantification of autophagy GFP-LC3 Puncta in Atg7 wild type and deficient MEFs. GFP-LC3 puncta formation was quantified as described previously. In brief, both Atg7 wild-type and deficient mouse embryonic fibroblasts (MEFs) grown on coverslips in a 6-well plate were treated with indicated concentrations of Onjisaponin B. The cells were then fixed in 4% paraformaldehyde for 20 minutes at room temperature and then rinsed with PBS. Slides were mounted with FluorSave™ mounting media (Calbiochem, San Diego, Calif.) and examined by fluorescence microscopy. The number of GFP-positive cells with GFP-LC3 puncta formation was examined under the Nikon ECLIPSE 80i microscope. Representative images were captured with CCD digital camera Spot RT3™ (Diagnostic Instruments, Inc., Melville, N.Y.). To quantify for autophagy, the percentage of cells with punctate GFP-LC3 fluorescence was calculated by counting the number of the cells with punctate GFP-LC3 fluorescence in GFP-positive cells. A minimum of 150 cells from 3 randomly selected fields was scored.

[4] = tested on: P-AMPK and P-p70S6K in PC12 cells; experiment: Western blot of mTOR signaling marker proteins; format: cell-based, rat
Experimental: Detection of mTOR signaling marker proteins. PC12 cells treated with indicated time and concentrations of Onjisaponin B were harvested and lysed in RIPA buffer (Cell Signaling). The cell lysates were then resolved by SDS-PAGE. After electrophoresis, the proteins from SDS-PAGE were transferred to nitrocellulose membrane which was then blocked with 5% non-fat dried milk for 60 minutes. The membrane was then incubated with P-p70S6K, p70S6K, P-AMPK, AMPK primary antibodies (1:1000) in TBST overnight at 4° C. respectively. After that, the membrane was further incubated with HRP-conjugated secondary antibodies for 60 minutes. Finally, protein bands were visualized by using the ECL Western Blotting Detection Reagents (Invitrogen).

[5] = tested on: EGFP-HDQ74 inclusions in PC12 cells; experiment: Mutant huntingtin aggregates in PC12, fluorescence microscopy; format: cell-based, rat; details: immunocytochemistry
Experimental: Quantification of mutant huntingtin aggregates in PC12, Atg7 wild type and deficient MEFs. In brief, both EGFP-HDQ74 transfected PC12, Atg7 wild-type and deficient mouse embryonic fibroblasts (MEFs) grown on coverslips in a 6-well plate were treated with indicated concentrations of Onjisaponin B. The cells were then fixed in 4% paraformaldehyde for 20 minutes at room temperature and then rinsed with PBS. Slides were mounted with FluorSave™ mounting media (Calbiochem, San Diego, Calif.) and examined by fluorescence microscopy. The number of cells with GFP-aggregates formation was examined under the Nikon ECLIPSE 80i microscope. Representative images were captured with CCD digital camera Spot RT3™ (Diagnostic Instruments, Inc., Melville, N.Y.). To quantify the clearance of mutant huntingtin, the percentage of cells with GFP-aggregates was calculated by counting the number of the cells with punctate GFP-LC3 fluorescence in GFP-positive cells. A minimum of 150 cells from 3 randomly selected fields was scored.

[6] = tested on: PC-12 cells transfected with mutant huntingtin EGFP-HDQ74; experiment: MTT viability of PC-12 cells expressing mutant huntingtin; format: cell-based, rat; details: 25 μmol/L, 2 days
Experimental: Cell cytotoxicity assay: Cytotoxicity was assessed using the 344,5-dimethylthiazol-2-yl)-2,5-diphenyltetrazolium bromide assay as described previously. PC-12 cells were transfected with or without mutant huntingtin EGFP-HDQ74 for 24 h. The PC-12 cells were then seeded on 96-well plates with 4000 cells per well and then exposed to the indicated concentrations of Onjisaponin B (25 μmol/L) for 2 days. Subsequently, 10 μL of MTT reagents was added to each well and incubated at 37° C. for 4 hours, followed by the addition of 100 μL solubilization buffer (10% SDS in 0.01 mol/L HCl) and overnight incubation. Absorbance at 585 nm was determined from each well on the next day. The percentage of cell viability was calculated using the following formula: Cell viability (%)=Cells number treated/Cells number DMSO control×100. Data was obtained from three independent experiments.

[7] = tested on: Doxycycline-inducible PC-12 cell lines transfected with mutant A53T α-synuclein; experiment: Cell death by flow cytometry (Annexin V / propidium iodide) in PC-12 cells expressing mutant A53T α-synuclein; format: cell-based, rat; details: 50 μM, 24 h after doxycycline removal
Experimental: Flow cytometry analysis: Doxycycline-inducible PC-12 cell lines transfected with mutant A53T α-synuclein were induced with doxycycline (1 μg/mL) for 24 h and the expression of transgene was then switched off by the removal of doxycycline. Cells were then treated with Onjisaponin B (50 μM) for a further 24 h after doxycycline removal. The control group (Ctrl) contained cells without the addition of doxycycline, while the Dox group contained cells with the removal of doxycycline (1 μg/mL) after 24 h of induction but without treatment of Onjisaponin B. Cell death was then assessed by flow cytometry using Annexin V staining kit and Propidium iodide staining. Data from the bar chart represented the means±S.D. of three independent experiments. **p<0.01; *p<0.05. Flow cytometry was carried out using a FACSCalibur flow cytometer. Data acquisition and analysis were performed with CellQuest.

In the case of `COc1ccc(/C=C/C(=O)O[C@@H]2[C@H](O[C@@H]3O[C@@H](C)[C@H](O)[C@@H](O)[C@H]3O)[C@@H](O[C@@H]3O[C@@H](C)[C@H](O[C@@H]4OC[C@@H](O[C@@H]5O[C@H](CO)[C@H](O)[C@H](O)[C@H]5O)[C@H](O)[C@H]4O)[C@@H](O)[C@H]3O)[C@H](OC(=O)[C@]34CCC(C)(C)C[C@H]3C3=CC[C@@H]5[C@@]6(C)C[C@H](O)[C@H](O[C@@H]7O[C@H](CO)[C@@H](O)[C@H](O)[C@H]7O)[C@@](C)(C(=O)O)[C@@H]6CC[C@@]5(C)[C@]3(CO)CC4)O[C@@H]2C)cc1` [Onjisaponin B], the “Cytotoxicity in PC-12 cells (MTT assay)” value (PC-12 cells [1]) is reported as “no significant cytotoxic effect; also recorded: no toxicity observed overtly”, the “Morphological damage in PC12 cells (crystal violet assay)” value (PC-12 cells [2]) is reported as “no significant morphological damage” and the “GFP-LC3 puncta formation in wild type Atg7 cells” value [3] is reported as “induce GFP-LC3 puncta formation”. For the same compound, the “Phosphorylation of AMPK” value ([4]; 25 μM at 8, 16, 24 hour, 3, 6.25, 12.5, 25 μM at 24 hour) was “activate the phosphorylation of AMPK in a time dependent manner”, the p70S6K phosphorylation ([4]; same treatments as AMPK blot) was “concomitant reduction in its downstream p70S6K phosphorylation” and the “Clearance of inclusions formed by EGFP-HDQ74 in PC12 cells” value [5] was “enhanced the clearance of inclusions formed by EGFP-HDQ74”. The “Toxicity in PC-12 cells expressing mutant huntingtin (cell viability, MTT)” value [6] was “reduced toxicity” and the “Toxicity in PC-12 cells expressing mutant A53T α-synuclein (cell death, flow cytometry)” value [7] was “reduced toxicity”.
